Reference: patent US20210154281A1, “CELL-BASED CANCER VACCINES AND CANCER THERAPIES” (Massachusetts Institute of Technology, priority 2019, published 2021)
Read-outs that look alike come from different tables or passages of the source.

Legend:
Assay type in all cases: cell-based, mouse
[1] = Cell viability (survival) assay with CellTiter-Glo, 48 hours; settings: mouse, 48 hours, normalized to DMSO-treated control cells
Procedure: (§1) For assays of survival, 15,000 cells were plated per well in a 96-well plate in 100 μl media with 5 replicates per condition. Wells along the four edges of the plate were not used. Following cell attachment, the indicated drugs were added in an equal volume of media, and incubated for an additional 48 hours. The media was then removed and replaced with 100 ul of fresh media at room temperature. Following a 30 minute incubation at room temperature, 50 μl of CellTiter-Glo reagent was added, followed by 2 minutes of gentle mixing. The plate was incubated at room temperature for an additional 10 minutes. 100 μl of supernatant was transferred to a 96-well white opaque plate and luminescence was read on a Tecan microplate reader. Values were normalized to those of DMSO-treated control cells.

[2] = system: B16F10 melanoma tumor cell line; experiment: Cell death by AnnexinV/DAPI staining 48 hours after drug treatment; settings: for cell death by DAPI and Annexin V staining: at the concentrations used
Procedure: For assessment of cell death, floating and attached cells were harvested after 48 hours of treatment with the indicated chemotherapeutic drugs. Attached cells were detached using 5 mM EDTA in PBS. The recovered cells were centrifuged at 250×g for 5 minutes, washed once in PBS containing 0.9 mM Ca2+ and 0.5 mM Mg2+ and then stained with AnnV-FITC for 15 minutes in Annexin binding buffer at room temperature according to the manufacturer's protocol (Biolegend). Cells were co-stained with DAPI at a final concentration of 1 μg/ml for 2 minutes in Annexin binding buffer, brought to a final volume of 500 ul using PBS containing 0.9 mM Ca2^+ and 0.5 mM Mg2^+ and analyzed by flow cytometry.
To identify how DNA-damaging chemotherapy could be optimally used to enhance anti-tumor immune function, cytotoxicity assays were performed using the B16F10 melanoma tumor cell line expressing ovalbumin (B16-Ova). Cells were treated with clinically used chemotherapeutic agents followed by assaying for cell death by DAPI and Annexin V staining 48 hours later.

B16-Ova cells = experiment: In vitro cross presentation assay: drug-treated B16-Ova cells, BMDC and OT-1 CD8+ T-cells, IFN-γ+ T-cells by flow cytometry; set-up: reduction of the percentage of IFNg+ T-cells by siRNA knockdown of calreticulin / reduction of T-cell IFN-γ responses / frequency of IFN-γ+ T-cells: concentration or dose not given beside the values
Procedure: B16-Ova or MC-38 Ova cells were treated with various doses of chemotherapeutic drugs for 24 h followed by extensive washing in IMDM (10% FBS, P/S). Subsequently 1×10^6 treated cells were co-cultured with 2.5×10^5 BMDC per well of a 24-well plate for each condition tested. After 24 hours of co-culture, supernatants were removed from each well and the BMDC washed 2-3 times in T-cell media (RPMI containing 10% FBS, 20 mM HEPES, 1 mM sodium pyruvate, 55 uM b-mercaptoethanol, 2 mM L-glutamine, nonessential amino acids and antibiotics). CD8+OT-I T-cells isolated from spleens of OT-I mice were then co-cultured with the BMDC at 125,000 T-cells per well to achieve an effector to target ratio of 0.5. Where indicated, BMDC and/or T-cells were also exposed to chemotherapy drugs. After a 12-15 h incubation, IFN-g producing T-cells were identified and quantified by intra-cellular cytokine staining and flow cytometry using a BD LSR II or Fortessa flow cytometer. Cells were first gated for CD3 expression, then re-gated for CD8 and IFNg expression.
An experimental system was developed to assess dendritic cell-mediated T-cell priming using the B16-Ova cells, in combination with primary bone-marrow derived dendritic cells (BMDC) and OT-I CD8+ T-cells expressing a TCR transgene that specifically recognizes the Ova-derived peptide […] (SEQ ID NO:1) in the context of H2-Kb (OT-1) (Clarke, et al., Immunol Cell Biol., 78(2):110-7 (2000); Hogquist, et al., Cell, 76(1):17-27 (1994)). […] The treated B16-Ova cells/BMDC co-culture was then incubated with purified CD8+ T-cells obtained from the spleens of OT-1 mice, and the appearance of IFNg+CD8 T-cells was measured 12-15 hours later by intracellular staining and subsequent quantification using flow cytometry.

[3] = system: B16F10 melanoma tumor cell line; experiment: Cell viability (survival) assay with CellTiter-Glo, 48 hours; settings: for Cell viability (%) MEAN: 48 hours, normalized to DMSO-treated control cells
Procedure: as §1

[4] = co-treatment of B16-Ova cells with etoposide
[5] = co-treatment of B16-Ova cells with mitoxantrone
[6] = Mus musculus, B16-F10, 48 h, read-out: AnnV+DAPI+ (%) Mean
[7] = Mus musculus, B16-F10, 48 h, read-out: AnnV+DAPI− (%) Mean
[8] = Mus musculus, B16-F10, 48 h, read-out: AnnV−DAPI+ (%) Mean
[9] = Mus musculus, B16-F10, 48 h, read-out: AnnV−DAPI− (%) Mean

Compound: O=c1[nH]cc(F)c(=O)[nH]1 [5-FU, 5-fluorouracil]
- viability at 48 h, 10 µM ([1]; B16F10 melanoma tumor cells, 10 uM): 49%
- viability at 48 h, 50 µM ([1]; B16F10 melanoma tumor cells, 50 uM): 42.8%
- cell death by DAPI and Annexin V staining ([2]; 48 hours): caused varying extents of apoptotic and non-apoptotic cell death
- cytotoxicity at 10 µM ([2]; Mus musculus, B16-F10, 10 uM, 48 hours, read-out: AnnV+DAPI+ (%) Mean): 5.29%
- cytotoxicity at 10 µM ([2]; Mus musculus, B16-F10, 10 uM, 48 hours, read-out: AnnV+DAPI− (%) Mean): 9.5%
- cytotoxicity at 10 µM ([2]; Mus musculus, B16-F10, 10 uM, 48 hours, read-out: AnnV−DAPI+ (%) Mean): 1.23%
- viability at 10 µM ([2]; Mus musculus, B16-F10, 10 uM, 48 hours, read-out: AnnV−DAPI− (%) Mean): 84%
- cytotoxicity at 50 µM ([2]; Mus musculus, B16-F10, 50 uM, 48 hours, read-out: AnnV+DAPI+ (%) Mean): 6.78%
- cytotoxicity at 50 µM ([2]; Mus musculus, B16-F10, 50 uM, 48 hours, read-out: AnnV+DAPI− (%) Mean): 28.1%
- cytotoxicity at 50 µM ([2]; Mus musculus, B16-F10, 50 uM, 48 hours, read-out: AnnV−DAPI+ (%) Mean): 1.33%
- viability at 50 µM ([2]; Mus musculus, B16-F10, 50 uM, 48 hours, read-out: AnnV−DAPI− (%) Mean): 63.9%

Compound: CC(C)(C)c1ccc(S(=O)(=O)/C=C/C#N)cc1 [Bay11-7085]
- BMDC-mediated T-cell priming (B16-Ova cells; [4]): inhibits BMDC-mediated T-cell priming
- reduction of T-cell IFN-γ responses / frequency of IFN-γ+ T-cells (B16-Ova cells; [4]): > 90%
- reduction of T-cell IFN-γ responses / frequency of IFN-γ+ T-cells (B16-Ova cells; [5]): > 50%

Compound: O=P1(N(CCCl)CCCl)NCCCO1 (stereo not drawn) [CPM, cyclophosphamide]
- viability at 48 h, 40 µM ([1]; 40 uM): 98.5%
- viability at 48 h, 200 µM ([1]; 200 uM): 101%
- cell death by DAPI and Annexin V staining ([2]; 48 hours): did not induce substantial amounts of cell death
- cytotoxicity at 40 µM [2, 6]: 7.7%
- cytotoxicity at 200 µM [2, 6]: 11%
- cytotoxicity at 40 µM [2, 7]: 1.44%
- cytotoxicity at 200 µM [2, 7]: 1.09%
- cytotoxicity at 40 µM [2, 8]: 0.82%
- cytotoxicity at 200 µM [2, 8]: 0.88%
- viability at 40 µM [2, 9]: 90%
- viability at 200 µM [2, 9]: 87%

Compound: CC[C@@]1(O)C(=O)OCc2c1cc1n(c2=O)Cc2cc3ccccc3nc2-1 [CPT, camptothecin]
- viability at 48 h, 0.25 µM ([1]; B16F10 melanoma tumor cells, 0.25 uM): 77.6%
- viability at 48 h, 0.05 uM ([1]; B16F10 melanoma tumor cells, .05 uM): 91.1%
- cell death by DAPI and Annexin V staining ([2]; 48 hours): did not induce substantial amounts of cell death
- cytotoxicity at 0.05 µM ([2]; Mus musculus, B16-F10, 50 nM, 48 hours, read-out: AnnV+DAPI+ (%) Mean): 7.03%
- cytotoxicity at 0.05 µM ([2]; Mus musculus, B16-F10, 50 nM, 48 hours, read-out: AnnV+DAPI− (%) Mean): 1.26%
- cytotoxicity at 0.05 µM ([2]; Mus musculus, B16-F10, 50 nM, 48 hours, read-out: AnnV−DAPI+ (%) Mean): 1.35%
- viability at 0.05 µM ([2]; Mus musculus, B16-F10, 50 nM, 48 hours, read-out: AnnV−DAPI− (%) Mean): 90.4%
- cytotoxicity at 0.25 µM ([2]; Mus musculus, B16-F10, 250 nM, 48 hours, read-out: AnnV+DAPI+ (%) Mean): 4.71%
- cytotoxicity at 0.25 µM ([2]; Mus musculus, B16-F10, 250 nM, 48 hours, read-out: AnnV+DAPI− (%) Mean): 4.35%
- cytotoxicity at 0.25 µM ([2]; Mus musculus, B16-F10, 250 nM, 48 hours, read-out: AnnV−DAPI+ (%) Mean): 0.58%
- viability at 0.25 µM ([2]; Mus musculus, B16-F10, 250 nM, 48 hours, read-out: AnnV−DAPI− (%) Mean): 90.3%

Compound: N.N.[Cl][Pt][Cl] [Cis, cisplatin]
- AnnV+DAPI+ (%) Mean ([2]; 10 uM, 48 hours): 2.76%
- AnnV+DAPI− (%) Mean ([2]; 10 uM, 48 hours): 3.68%
- AnnV−DAPI+ (%) Mean ([2]; 10 uM, 48 hours): 0.32%
- AnnV−DAPI− (%) Mean ([2]; 10 uM, 48 hours): 93.25%
- AnnV+DAPI+ (%) Mean ([2]; 50 uM, 48 hours): 18.75%
- AnnV+DAPI− (%) Mean ([2]; 50 uM, 48 hours): 46.80%
- AnnV−DAPI+ (%) Mean ([2]; 50 uM, 48 hours): 2.96%
- AnnV−DAPI− (%) Mean ([2]; 50 uM, 48 hours): 31.55%
- cell death by DAPI and Annexin V staining ([2]; 48 hours): caused varying extents of apoptotic and non-apoptotic cell death

Compound: O=C1[O][Pt]2([NH][C@@H]3CCCC[C@H]3[NH]2)[O]C1=O [Oxal, oxaliplatin]
- Cell viability (%) MEAN ([3]; 10 uM): 45.09%
- Cell viability (%) MEAN ([3]; 50 uM): 44.21%
- growth arrest ([3]; at the concentrations used): caused some degree of growth arrest
- AnnV+DAPI+ (%) Mean ([2]; 10 uM, 48 hours): 1.73%
- AnnV+DAPI− (%) Mean ([2]; 10 uM, 48 hours): 2.65%
- AnnV−DAPI+ (%) Mean ([2]; 10 uM, 48 hours): 1.11%
- AnnV−DAPI− (%) Mean ([2]; 10 uM, 48 hours): 94.50%
- AnnV+DAPI+ (%) Mean ([2]; 50 uM, 48 hours): 4.25%
- AnnV+DAPI− (%) Mean ([2]; 50 uM, 48 hours): 4.23%
- AnnV−DAPI+ (%) Mean ([2]; 50 uM, 48 hours): 1.09%
- AnnV−DAPI− (%) Mean ([2]; 50 uM, 48 hours): 90.45%
- cell death by DAPI and Annexin V staining ([2]; 48 hours): did not induce substantial amounts of cell death

Compound: Cc1ccc(-c2ccc3c(ccc4sc5c(c43)NC[C@@H](C)NC5=O)n2)cn1 [PF-3644022]
- BMDC-mediated T-cell priming (B16-Ova cells; [4]): enhances BMDC-mediated T-cell priming

Compound: Oc1ccc(-c2nc(-c3ccncc3)c(-c3ccc(F)cc3)[nH]2)cc1 [SB202190]
- reduction of T-cell IFN-γ responses / frequency of IFN-γ+ T-cells (B16-Ova cells; [4]): ~22%
- reduction of T-cell IFN-γ responses / frequency of IFN-γ+ T-cells (B16-Ova cells; [5]): nearly abrogated

Compound: CN1C(=O)C(Cc2c[nH]c3ccccc23)NC1=S (stereo not drawn) [necrostatin-1]
- ability of drug-treated B16-Ova cells co-cultured with BMDCs to induce IFN-g in T-cells (B16-Ova cells; co-treatment with etoposide or mitoxantrone): inhibited the ability of both etoposide and mitoxantrone-treated B16-Ova cells

Compound: Z-VAD
- reduction of T-cell IFN-γ responses / frequency of IFN-γ+ T-cells (B16-Ova cells; [4]): ~12%
- reduction of T-cell IFN-γ responses / frequency of IFN-γ+ T-cells (B16-Ova cells; [5]): no effect
